The text below walks through data of patent US20040248099A1, “Use of intermediate -conductance potassium channels and modulators for diagnosing and treating diseases having disturbed keratinocyte activity” (priority 2000, published 2004).

The test system of data set [1] is HaCaT keratinocytes. Kind of data set: Proliferation of subconfluent HaCaT keratinocytes, number of cells per well determined daily. It is filed as cell-based, human. Particulars: n=3. The procedure: In order to investigate the effect of the hIK1 channel inhibitors clotrimazole and charybdotoxin, either 10 μM clotrimazole, 200 nM charybdotoxin (ChTx) or 1 mM 1-EBIO were/was added to cells which were growing subconfluently and the number of cells per well was determined daily.

Data set [2] relates to HaCaT keratinocytes. Description: BrDU incorporation cell proliferation ELISA in HaCaT keratinocytes. How it is done:
The influence of activators of IK1 on proliferation was investigated using 1-EBIO and zolxazolamine (see above). Firstly, the influence of different concentrations of 1-EBIO on the growth rate of HaCaT cells was measured in the presence and in the absence of serum. For this purpose, 1×10^4 HaCaT cells per well were cultured in keratinocyte growth medium (KGM) for 5 days in a 96-well plate, in order to synchronize the cell cycle, with this being followed by a two-day incubation in the presence of different concentrations of 1-EBIO in KGM (see FIGS. 7 and 8) in the absence (FIG. 7) and in the presence (FIG. 8) of serum. […] 1% DMSO in KGM served as the solvent control. Cell proliferation was measured by the incorporation of bromodideoxyuridine (BrDU) while cell division was measured in accordance with the manufacturer's instructions (‘The Cell Proliferation ELISA, BrDU, Roche). The incorporation of BrDU was quantified by determining the absorption at 450 nm. In FIGS. 7 and 8, the absorption (A[450 nm]) is in each case plotted on the Y axis as a measure of the proliferation rate. Greater absorption reflects greater proliferation.
(In an ELISA, binding on a coated surface is turned into a signal by an enzyme label.)

Data set [3] has as its system HaCaT keratinocytes. Description: Patch-clamp recording of the membrane potential of HaCaT keratinocytes (current clamp; ATP-induced response). The class given is cell-based, human. Particulars: for blockers leading to a comparable depolarization on a plateau during treatment with ATP: other K+ channel blockers tested. How it is done:
In order to identify an ion channel which is substantially involved in the transduction of wound healing-specific signals, HaCaT cells were investigated electrophysiologically. The HaCaT keratinocytes were propagated in DEM containing 10% FCS (Gibco BRL) to which antibiotics (penicillin/streptomycin, 100 U/ml) had been added. […] The patch pipettes were prepared from small borosilicate tubes on a horizontal pulling device (DMZ, Zeitz) using the two-step pulling method. […] The resistance of these patch pipettes was 5-8 GΩ in the bath. After a seal in the GΩ range had been produced (typically 1.5-2 GΩ) the amplifier was switched to current clamp mode. […] The electrophysiological signals were recorded, amplified and digitalized using an Axopatch 200 amplifier in combination with a TL-1 Labmaster Interface and AXOTAPE software (Axon Instruments). The statistical analysis (one-way ANOVA with Bonferri post-test comparison) was carried out using Graphpad prism 2.0. […]
The inflow of liquid was gravity-dependent and was controlled by means of magnetic valves. Outflow was effected by applying a negative pressure using a vacuum pump. Substances were added, while observing visually, directly into the keratinocytes under investigation using a remotely controlled, magnet-controlled Y tube system (diameter of the efflux tube: 100 μm).
The electrophysiological recordings were carried out, using perforated patches, on HaCaT cells which had grown into a confluent monolayer.

The test system of data set [4] is HaCaT cells. Description: Immunoblotting of the differentiation markers involucrin, keratin 1 and keratin 10. To be noted: 1-EBIO 1, 100, 1000 μM, 4 days; dose-dependent. The class given is cell-based, human. The procedure: For this, 5×10^5 HaCaT cells per well were grown in medium in a 6-well plate. […] 1% DMSO in medium was used as the solvent control (lane ‘C’). The cells were incubated for 4 days, with the medium being replaced daily. After 4 days, the protein concentration in the cell lysates was determined (BCA Assay, Pierce). Immunoblotting was then used to compare equal quantities of protein from the different lysates with the keratinocyte differentiation markers involucrin (1:500, Sigma) and keratin 1 and 10 (1:250, Progen) (FIG. 6).
Background: Immunoblotting shows a protein as a band on a membrane.

Data set [5] concerns HaCaT cells. Description: Keratinocyte differentiation by immunostaining with anti-K10 antibody. The class given is cell-based, human. To be noted: 1-EBIO 1 mM, 3 days.

Entries after “also recorded” stand apart in the source; their conditions may differ.

Consider `CCn1c(=O)[nH]c2ccccc21` [1-EBIO, 1-ethyl-2-benzimidazolinone], for which the influence on proliferation entry in the data set with HaCaT keratinocytes [1] (1-EBIO 1 mM) is reported as “inhibited proliferation completely; also recorded: complete inhibition”. For the same molecule, the “cell morphology and apoptosis under activator” value with HaCaT keratinocytes [2] is “no sign of apoptosis”. Also, in the data set with HaCaT keratinocytes [2] (10% FCS), the “concentration of strongest inhibition of serum-induced proliferation” value was 1 mM and the “dose dependence of the inhibition of serum-induced proliferation” value is given as “dose-dependent”. For the same molecule, the “effect on serum-induced proliferation (BrDU incorporation)” value in the data set on HaCaT keratinocytes [2] (10% FCS, different concentrations of 1-EBIO, two-day incubation) is listed as “inhibit serum-induced proliferation”. Moreover, the “stimulation of cell proliferation (BrDU incorporation)” value in the data set with HaCaT keratinocytes [2] (absence of serum, different concentrations of 1-EBIO, two-day incubation) is listed as “not on their own able to stimulate cell proliferation”. In addition, the “membrane potential (rapid and powerful hyperpolarization to)” value with HaCaT keratinocytes [3] (1-EBIO 1 mM, n=3) is recorded as −83±3 mV. The “transient depolarization on adding ATP, compared with controlled conditions” value with HaCaT keratinocytes [3] (ATP 10 μM in the presence of 1-EBIO 1 mM) was “much stronger”. The “effect on differentiation (involucrin, K1, K10 protein)” value in the data set on HaCaT cells [4] was “inhibit differentiation”. For the same molecule, the “proportion of K10-stained (partially differentiated) cells versus control cells” value in the data set with HaCaT cells [5] is listed as “signficantly reduced”.

For `Nc1ncnc2c1ncn2[C@@H]1O[C@H](COP(=O)(O)OP(=O)(O)OP(=O)(O)O)[C@@H](O)[C@H]1O` [ATP], the “reversibility of the hyperpolarization” value in the data set with HaCaT keratinocytes [3] (1 μM ATP, n=9) was “could be reversed rapidly by washing out”. Also, the hyperpolarization in the data set on HaCaT keratinocytes [3] (10 μM ATP, n=28) amounted to 30±2 mV. Further, the “change in the membrane potential on perfusion” value in the data set with HaCaT keratinocytes [3] (ATP 1-1000 μM, transient depolarization followed by long-lasting hyperpolarization) is “biphasic change in the membrane potential”. The “duration of the strong hyperpolarization after addition” value with HaCaT keratinocytes [3] (ATP concentrations of ≧10 μM) is on record as “at least 5 min”.

For `[Ba+2]` [Ba^2+], the “blockers leading to a comparable depolarization on a plateau during treatment with ATP” value with HaCaT keratinocytes [3] was “None”.

Take `CCn1c(=O)[nH]c2cc(Cl)c(Cl)cc21` [DCEBIO, 5,6-dichloro-1-ethyl-1,3-dihydro-2H-benzimidazol-2-one]: the “concentration for the same electrophysiological effect as 1-EBIO, times less concentrated” value with HaCaT keratinocytes [3] (HaCaT cells) is recorded as 300-1000 times.

`CCCCCCCCCCCCCC(=O)O[C@@H]1[C@@H](C)[C@@]2(O)[C@@H](C=C(CO)C[C@]3(O)C(=O)C(C)=C[C@@H]23)[C@@H]2C(C)(C)[C@]12OC(C)=O` [PMA]: the “influence on the effect of ATP” value in the data set with HaCaT keratinocytes [3] was “no influence”.

For the molecule `CC[N+](CC)(CC)CC` [TEA], in the data set with HaCaT keratinocytes [3], the “blockers leading to a comparable depolarization on a plateau during treatment with ATP” value is “None”.

Take `Clc1ccccc1C(c1ccccc1)(c1ccccc1)n1ccnc1` [clotrimazole]: the influence on proliferation result in the data set on HaCaT keratinocytes [1] (clotrimazole 10 μM) is reported as “complete inhibition”; in the data set with HaCaT keratinocytes [1] (clotrimazole 10 μM, listed as Clotrimazole) it was “inhibited proliferation completely”. Besides, in the data set on HaCaT keratinocytes [3] (clotrimazole 1 μM prior to ATP, n=3), the “effect on the ATP-induced electrophysiological response, compared with 100 nM ChTx” value is “The same effect”.

Regarding `NCCc1c[nH]cn1` [histamine], the “electrophysiological response compared with ATP” value in the data set with HaCaT keratinocytes [3] (histamine 100 μM, n=4) is “practically identical quantitatively and kinetically”.

As for calphostin C, the “effect on the ATP-mediated change in voltage” value in the data set on HaCaT keratinocytes [3] (calphostin C 50 nM) was “no effect”.

For “charybdotoxin (QFTNVSCTTSKECWSVCQRLHNTSRGKCMNKKCRCYS)”, the influence on proliferation entry with HaCaT keratinocytes [1] (charybdotoxin 200 nM) is “retarded proliferation; also recorded: growth which was only retarded”. In addition, the “effect on the established ATP-mediated hyperpolarization” value in the data set on HaCaT keratinocytes [3] (ChTx 100 nM added after ATP, ATP still present, n=2) is listed as “complete reversal of the hyperpolarization”. In addition, the “effect on the ATP-induced electrophysiological response” value was “completely prevented repolarization” with HaCaT keratinocytes [3] (ChTx 100 nM prior to ATP, n=4, potential stayed on a depolarized plateau); “retarded repolarization of the rapid depolarization and prevented hyperpolarization” with HaCaT keratinocytes [3] (ChTx 10-100 nM prior to ATP, n=15). Besides, in the data set with HaCaT keratinocytes [3] (charybdotoxin at various concentrations prior to ATP), the “inhibition of the ATP-mediated hyperpolarization” value is given as “dose-dependent inhibition”.
